Patent EP2118065B1, “Substituted 1H-benz[de]isoquinoline-1,3-diones” (priority 2007, dated 2008)

Key:
Assay in all cases: SRB in vitro cytotoxicity, human tumor cell line
Assay type in all cases: cell-based
[1] = system: COLO-205; settings: 10^-5 M, Colon: COLO-205, read-out: growth inhibition
Description: (§1) Compounds 3a-g were screened by sulforhodamine-B (SRB) semi-automated assay in a battery of cell lines. […] A., et. al. (1991); Feasibility high flux anticancer screen utilizing diverse panel of human tumor cell lines in culture. J Natl Cancer Inst. 83, 757-766]. Each compound was tested in triplicate sets of experiments at 10^-4 to 10^-6 M concentrations (Table 4).
(§2) A stock solution of 2 x 10^-2M was prepared in DMSO. The stock solutions were serially diluted to obtain working test solutions with complete growth medium (RPMI-1640 medium with 2mM glutamine, 100µg/ml streptomycin, pH 7.4, sterilized by filtration and supplemented with 10% fetal bovine serum and 100 units/ml penicillin before use) containing 50 µg/ml of gentamycin to obtain working test solutions. The working test solutions were not filtered/ sterilized but microbial contamination was controlled by addition of gentamycin in complete growth medium used for dilution of stock solutions to prepare working test solutions.
(§3) In vitro cytotoxicity against human cancer cell lines was determined^2 [Monk. A., et. al. (1991); Feasibility high flux anticancer screen utilizing diverse panel of human tumor cell lines in culture. J Natl Cancer Inst. 83, 757-766] using 96-well tissue culture plates. The cells were grown in tissue culture flasks in complete growth medium at 37°C in an atmosphere of 5% CO2 and 95% relative humidity in a carbon dioxide incubator. The cell suspension of required cell density (1-2 lakhs/ml) depending on the mass doubling time of cell lines was prepared in complete growth medium for determination of cytotoxicity. The aliquots of 100 µl of cell suspension were added to each well on a 96-well tissue culture plate. The blank wells contained complete medium in place of cell suspension. Simultaneously, control experiments with positive controls containing known anticancer agents were carried out. Cells were incubated for 24 hr.
(§4) The test materials (100 µl in each well) were added after 24-hours to the wells containing cell suspension and blank wells. The cells were allowed to grow in presence of test material by further incubating the plates for 48 hours. At the end of incubation period the cell growth was stopped by gently layering trichloroacetic acid (50% TCA, 50µl/well) on top of the medium in all the wells. The plates were incubated at 4°C for 1 hr. The plates were washed five times with distilled water to remove TCA, growth medium, low molecular weight metabolites, serum proteins etc. and air-dried.
(§5) The cell growth was measured^3 [Skehan, P, Storeng, R Scudiero, D, Monks, A, Mcmahon, J, Vistica, D, Warren, J.T., Bokesch, H., Kenney, S., Boyd, M.R. (1990). New colorimetric cytotoxicity assay for anti-cancer drug screening. J Natl Cancer Inst. 82: 1107-12] by staining with Sulphorhodamine B. Sulphorhodamine B (SRB, 0.4% in 1% acetic acid, 100 µl/well) was added to each well and plates were allowed to stand at room temperature for 30 minutes. The plates were washed with 1% acetic acid four times and then dried. Tris-HCl buffer (0.01 M, pH 10.5, 100 µl/well) was added to each well to solublise the dye. The plates were shaken gently for 10 minutes on a shaker and the optical density was recorded on ELISA reader at 540 nm. The cell growth was determined by subtracting mean OD value of respective blank from the mean OD value of experimental set. Percent growth in presence of test material was calculated considering the growth in absence of any test material as 100% and in turn percent growth inhibition in presence of test material was calculated. All the experiments were carried out in quadruplicate.

[2] = system: SK-N-SH; settings: 10^-5 M, Neuroblastoma: SK-N-SH, read-out: growth inhibition
Description: as §1, §2, §3, §4, §5

[3] = system: HT-29; settings: 10^-5 M, Colon: HT-29, read-out: growth inhibition
Description: as §1, §2, §3, §4, §5

[4] = system: MCF-7; settings: MCF7, 10^-5 M, Breast: MCF-7, read-out: growth inhibition
Description: as §1, §2, §3, §4, §5

[5] = system: SKOV-3; settings: SK-OV-3, 10^-5 M, Ovarian: SKOV-3, read-out: growth inhibition
Description: as §1, §2, §3, §4, §5

[6] = system: A549; settings: 10^-5 M, Lung: A549, read-out: growth inhibition
Description: as §1, §2, §3, §4, §5

[7] = system: 502713; settings: 10^-5 M, Colon: 502713, read-out: growth inhibition
Description: as §1, §2, §3, §4, §5

[8] = system: OVCAR-5; settings: 10^-5 M, Ovary: OVCAR-5, read-out: growth inhibition
Description: as §1, §2, §3, §4, §5

[9] = system: HCT-15; settings: 10^-5 M, Colon: HCT-15, read-out: growth inhibition
Description: as §1, §2, §3, §4, §5

[10] = system: PC-3; settings: 10^-5 M, Prostate: PC-3, read-out: growth inhibition
Description: as §1, §2, §3, §4, §5

[11] = system: IMR-32; settings: 10^-5 M, Neuroblastoma: IMR-32, read-out: growth inhibition
Description: as §1, §2, §3, §4, §5

[12] = system: DU-145; settings: 10^-5 M, Prostate: DU-145, read-out: growth inhibition
Description: as §1, §2, §3, §4, §5

[13] = system: Hep-2; settings: 10^-5 M, Liver: Hep-2, read-out: growth inhibition
Description: as §1, §2, §3, §4, §5

[14] = system: SW-620; settings: 10^-5 M, Colon: SW-620, read-out: growth inhibition
Description: as §1, §2, §3, §4, §5

Compound: O=C1c2cccc3c([N+](=O)[O-])ccc(c23)C(=O)N1CCCCl [Compound 3f, 6-Nitro-2-[3-(Chloropropyl)]-1H-benz[de]isoquinoline-1,3-dione]
- inhibition at 10 µM [1]: > 50%
- inhibition at 10 µM [2]: > 50%
- inhibition at 10 µM [3]: > 50%
- inhibition at 10 µM [4]: > 50%
- inhibition at 10 µM [5]: ≤ 50%
- inhibition at 10 µM [6]: ≤ 50%
- inhibition at 10 µM [7]: > 50%
- inhibition at 10 µM [8]: > 50%
- inhibition at 10 µM [9]: > 50%
- inhibition at 10 µM [10]: > 50%
- inhibition at 10 µM [11]: > 50%
- inhibition at 10 µM [12]: > 50%
- inhibition at 10 µM [13]: > 50%
- inhibition at 10 µM [14]: > 50%
